Values after ≈ are worked out from the molar mass of the structure shown. Counter-ions that a name gives are not always drawn. Like-named read-outs stand apart in the source and are kept apart here.
B1: IFN-γ: Recombinant human IFN-γ, a well-known inducer of persistence (protein, UniProt P01579 24-161, looked up)
Interferon gamma: QDPYVKEAENLKKYFNAGHSDVADNGTLFLGILKNWKEESDRKIMQSQIVSFYFKLFKNFKDDQSIQKSVETIKEDMNVKFFNSNKKKRDDFEKLTNYSVTDLNVQRKAIHELIQVMAELSPAAKTGKRKRSQMLFRG

Assays:
Type in all cases: cell-based
[1] = tested on: Chlamydia trachomatis serovar L2; experiment: Minimum bactericidal concentration (titration of infectious ability of bacteria from treated infected cells)
Procedure: (§1) It was first sought to verify whether other molecules of the β-lactam family could induce in vitro the same abnormal and noninfectious forms of Chlamydia trachomatis as that produced in the presence of penicillin G. Titration experiments were performed on the infectious ability of bacteria from infected cells treated with different β-lactams. Cytotoxicity and minimum bactericidal concentration (MBC) were determined for each of these molecules. It was also verified whether all of these β-lactams have bactericidal action on persistent forms of Chlamydia trachomatis produced in vitro under the effect of IFN-γ.

[2] = tested on: Cells Infected with Chlamydia trachomatis serovar L2; experiment: Cytotoxicity of β-lactams
Procedure: as §1

[3] = tested on: Chlamydia trachomatis L2 serovar 16S rRNA; experiment: 16S rRNA expression by RT-PCR; conditions: 100 hpi
From the text: HeLa cells were infected with the Chlamydia trachomatis L2 serovar and treated or not treated with penicillin G at 3 hpi. At 100 hpi, the cells were collected and the RNA extracted carefully to avoid DNA contamination. Half of the isolated RNA was used for reverse transcription. The RNA and cDNA were amplified by PCR with primers for 16S (bacterial) and 18S (eukaryotic) rRNA in order to study bacterial activity and to verify cDNA quality and quantity. PCR of the RNA is used to verify the absence of DNA contamination. It also indicates the absence of contaminant in the PCR. […] Roughly 1×10^5 HeLa cells were infected and exposed or not exposed to penicillin G, as described above. At 100 hpi, total RNA were isolated using the RNeasy Plus Mini Kit (Qiagen, Hilden, Germany). The samples were treated with DNase I for 1 hour at 37° C. The enzyme was then denatured at 70° C. for 10 min. The RNA were reverse-transcribed into cDNA using random hexamer primers and AffinityScript Multiple Temperature Reverse Transcriptase (Agilent, Santa Clara, Calif., USA) and by following the manufacturer's instructions for RT-PCR. cDNA and RNA were amplified by PCR with Tag Polymerase (Invitrogen, Carlsbad, Calif., USA) in order to verify the absence of DNA contamination. The primers used to amplify 16S rRNA are: A semi-quantitative analysis of the PCR products was carried out by agarose gel electrophoresis and UV detection.

[4] = tested on: Chlamydia trachomatis serovar L2; experiment: Development and morphology of inclusions in infected HeLa cells (microscopy); conditions: infected HeLa cells, videomicroscopy / culture for 4 days
Procedure: HeLa cells were infected with Chlamydia trachomatis serovar L2 and treated with IFN-γ (100 ng/ml), penicillin G (100 U/ml) or gentamicin ([…]). At various times after infection (hours post-infection (hpi)), the cells were fixed and stained with an antibody against Chlamydia sp. (green in the original figure) and with Hoechst (blue in the original figure). The infected HeLa cells treated with penicillin G have abnormal bodies that grow and that are phenotypically quite different from those formed during treatment with IFN-γ. The bodies formed with penicillin G are appreciably different from “classic” persistent bodies. To examine the effects of penicillin G on cell infection with Chlamydia, the host cells were cultivated up to 70% confluence without antibiotics, and then were infected with C. trachomatis strain […]. muridarum at 1 IFU. The infections were carried out at 37° C. for 90 minutes with centrifugation, followed by a washing of extracellular bacteria. At 3 hpi, after the washings, the culture medium was replaced with medium containing either 25 μg/ml gentamicin or 1-100 IU/ml penicillin G. At regular intervals after treatment with penicillin G, the cultures were either fixed in 4% neutral buffered PFA for 30 minutes to be prepared for confocal microscopy, or collected to determine the infectivity of the progeny bacteria, according to the previously described method (Verbeke, P. et al. PLoS Pathog 2:e45, 2006). HeLa cells cultured in monolayers on slides were infected with serovar L2 with an IFU of 1, as described above (Verbeke, P. et al. PLoS Pathog 2:e45, 2006). Three hours after the infection, the medium was removed and replaced with culture medium containing 500 IU/ml (final concentration) recombinant human IFN-γ.

[5] = tested on: Chlamydia trachomatis inclusions; experiment: Fusion of lysosomes with inclusions (cathepsin D, LysoTracker, confocal microscopy); conditions: HeLa, 24 hpi
[6] = minimum bactericidal concentration, read-out: MBC
[7] = second line of the MBC cell, read-out: MBC, bound in parentheses below the value
[8] = printed as a concentration bound

Row | Molecule | MBC [1, 6] | MBC [1, 7] | Cytotox. ([2]; given as 0) | further results
1 | C[C@]1(Cn2ccnn2)[C@H](C(=O)O)N2C(=O)C[C@H]2S1(=O)=O [Tazobactam sodium salt] | 30 µM | > 10 µM | 0 | –
2 | Cc1onc(-c2ccccc2Cl)c1C(=O)N[C@@H]1C(=O)N2[C@@H]1SC(C)(C)[C@@H]2C(=O)O [Cloxacillin sodium salt hydrate] | 3 µM | > 1 µM | 0 | –
3 | CC1(C)S[C@@H]2[C@H](NC(=O)[C@H](N)c3ccc(O)cc3)C(=O)N2[C@H]1C(=O)O [Amoxicillin trihydrate] | 0.3 µM | > 0.1 µM | 0 | –
4 | CC1=C(C(=O)O)N2C(=O)[C@@H](NC(=O)[C@H](N)c3ccc(O)cc3)[C@H]2SC1 [Cefadroxil] | 10 µM (≈ 3.63 µg/mL) | > 3 µM | 0 | –
5 | O=C(O)[C@H]1/C(=C/CO)O[C@@H]2CC(=O)N21 [Potassium clavulanate] | 1 µM | > 0.3 µM | – | Cytotox. [2, 8]: >50 µM
6 | CC1(C)S[C@@H]2[C@H](/N=C/N3CCCCCC3)C(=O)N2[C@H]1C(=O)O [Mecillinam] | 3 µM (≈ 0.976 µg/mL) | > 1 µM | 0 | –
7 | C=CC1=C(C(=O)O)N2C(=O)[C@@H](NC(=O)/C(=N\OCC(=O)O)c3csc(N)n3)[C@H]2SC1 [Cefixime trihydrate] | 300 µM | > 100 µM | – | Cytotox. [2, 8]: >400 µM
8 | CC1(C)S[C@@H]2[C@H](NC(=O)COc3ccccc3)C(=O)N2[C@H]1C(=O)O [Penicillin V potassium salt] | 0.3 µM | > 0.1 µM | 0 | –
9 | CC1(C)[C@H](C(=O)O)N2C(=O)C[C@H]2S1(=O)=O [Sulbactam sodium] | – | – | – | MBC [1]: 10 µM; MBC ([1]; read-out: MBC, bound in parentheses below the value): > 3 µM
10 | C[C@@H](O)[C@H]1C(=O)N2C(C(=O)O)=C(SCCN=CN)C[C@H]12 [Imipenem monohydrate] | 300 µM | > 100 µM | 0 | –
11 | gentamicin | – | – | – | 16S rRNA expression in infected cells [3]: amplified
12 | B1 | – | – | – | growth of the bacterial inclusions [4]: remains constant; 16S rRNA expression in infected cells [3]: amplified; localization of cathepsin D in inclusions [5]: excluded from normal and persistent inclusions

Source: patent US20130053336A1, “TREATMENT OF CHLAMYDIACEAE INFECTIONS BY MEANS OF BETA-LACTAMS” (priority 2010, published 2013)
